Laboratory results as given in patent publication US8809386B2, “Use of dynamin ring stabilizers” (Children's Medical Research Institute, priority 2009, dated 2014).

How the values were obtained:
[1] = test system: dynamin; assay: Electron microscopy of helical dynamin on PS liposomes; type: biochemical; settings: 5 μM, FIG. 8
Source text: FIGS. 8 (A) to (D) are electron micrographs showing Bis-T-23 prevents constriction or helical expansion of dynamin on PS liposomes in vitro. It stabilizes the dynamin helix, which loses its flexibility and forms uniform diameter rings, inhibiting dynamin ring disassembly.
A characteristic of helical dynamin is that the helix is a highly flexible structure. Upon GTP hydrolysis it is able to rapidly reduce its diameter (constriction) while also expanding in length (helical expansion) (Stowell et al. 1999; Chen et al. 2004; Roux et al. 2006). This is thought to be a potential mechanism utilized for the fission of the necks of newly budded endocytic vesicles in cells (Roux et al. 2006). The highly flexible nature of helical dynamin was confirmed by EM analysis of dynamin bound to phosphatidylserine liposomes in the absence of GTP or GDP (FIG. 8). Dynamin mixed with PS liposomes formed a helix with specific characteristics (FIGS. 8A and C): the individual loops of the helix were highly varied in diameter, formed at different angles relative to the underlying lipid, and the spacing between loops was highly variable. […] Bis-T-23 bound dynamin appeared similar to previous reports of GTPγS-bound dynamin on lipid nanotubes (Stowell et al. 1999).

[2] = test system: LPS-induced proteinuria, BALB/c mice; assay: LPS-induced proteinuria in mice; type: in vivo, mouse; settings: IP, 300 μg per 100 g body weight
Protocol: FIG. 21 is a graph showing that the ring stabilizer Bis-T-23 rescues proteinuria in lipopolysaccharide (LPS) treated mice. LPS is a model for proteinuric kidney disease. Albumin levels were determined in 6 mice prior to (Con), 24 hours after LPS injection (2×LPS), and 2, 4, 6 and 8 h after administration of Bis-T-23 (open bars) or DMSO (delivery solution, grey bars). A decrease in proteinuria was noted from 2-8 hours after administration of a single dose of this ring stabilizer.
A second model of acute proteinuria was then employed to test the ability of a dynamin ring stabilizer to ameliorate proteinuria in a reversible model of proteinuric kidney disease. LPS-induced proteinuria was utilized as previously described (Sever et al., 2007). Briefly, four week old female BALB/c mice were injected twice intraperitoneally (IP) with 200 μg of ultrapure LPS diluted in phosphate-buffered saline at a concentration of 1 mg/ml. Proteinuria developed within 48 h (FIG. 20, 2×LPS). Bis-T-23 was dissolved in DMSO to the appropriate concentrations and 300 μg per 100 g body weight was delivered by IP injection, and DMSO was used as a vehicle control. The level of protein in the urine was determined by using mouse Albumin-specific ELISA kit according to manufacturer's protocol (Bethyl Laboratories).

[3] = test system: mouse expressing ‘gain of function’ α-actinin 4 mutant protein; assay: Proteinuria in mouse expressing gain of function α-actinin 4 mutant; type: in vivo; settings: IP, 166 μg/100 g body weight, up to 6 hours after administration, FIG. 20
Protocol: FIG. […] Proteinuria was measured using mouse Albumin-specific ELISA and Creatinine Companion assay kits (Exocell and Bethyl Laboratories) following manufacturer's protocols.
Mice expressing a ‘gain of function’ mutation in the ACTN4 gene encoding for α-actinin 4 has been fully characterized (Kaplan et al. 2000; Henderson et al. 2008; Yao et al. 2004). These animals develop FP effacement and proteinuria due to “hyper bundling” activity of α-actinin 4 mutant that induces aggregation of stress fibers. Proteinuria develops at 4-6 weeks of age. The animals used in the present study were obtained from Dr. Martin Pollak, Brigham and Women's Hospital, Boston, Mass., USA. Proteinuric phenotype was confirmed by determination of urinary albumin and creatinine using mouse Albumin-specific ELISA and Creatinine Companion assay kits (Exocell and Bethyl Laboratories) following the manufacturer's protocols. The control animal was a litermate. Bis-T-23 was dissolved in 100% DMSO to make a 10 μg/μl stock solution, of which 5 μl was diluted in 200 μl of 1×PBS, and this was injected intraperitoneally (IP) into the test animal (166 μg/100 g body weight) at time 0 hr. Protein levels in the urine were measured every 2 hours post injection.

[4] = test system: endocytosis; assay: Endocytosis in cells (data not shown); type: cell-based
Protocol: To determine if the in vitro action of the dynamin ring stabilizers also occurs in cells, the effect of Bis-T-23 on the actin cytoskeleton in cultured mouse podocytes was tested (FIG. 19). […] Thus, the observed increase in stress fibers is unlikely due to inhibition of endocytosis.

[5] = test system: dynamin I; assay: Dynamin disassembly centrifugation assay, helix preassembled on PS liposomes; type: biochemical; settings: FIG. 7
Protocol: Briefly, dynamin I was preassembled as a helix in the presence of PS liposomes for 30 min, after which the dynamin ring stabilizer Bis-T-23 or non-dynamin ring stabilizer dynole 34-2 (see Example 4) were added. The samples were then centrigued in a microfuge for 10 min to collect supernatans (Sup) or pellets. In this assay, helical dynamin is found primarily in the pellet. However, the addition of either NaCl (150 mM) or Mg/GTP (1 mM) is known to disassemble dynamin and it is found primarily in the supernatant (see FIG. 7). […] This unique mechanism of action explains why dynamin ring stabilizers can stimulate basal GTPase while inhibiting helical dynamin GTPase activity at the same time.

[6] = test system: truncated dynamin I construct known as GG2; assay: Basal GTPase activity of assembly-incompetent dynamin construct GG2; type: biochemical; settings: FIG. 5
Source text: FIG. 5 is a graph showing the basal GTPase activity of the truncated dynamin I construct known as GG2, containing only the GTPase domain linked to a small part of the GED domain (Chappie et al 2009). Unlike full length dynamin this construct is known to be unable to self-assemble or to form rings. Bis-T-22 and -23 and imminodyn-22 have no effect on the basal activity of this assembly-incompetent construct.
To verify that ring stabilizers require dynamin oligomerisation, a recombinant form of dynamin, called GG-2, which is dimeric yet is unable to self-associate into higher order oligomers (Chappie et al 2009) was tested. Ring stabilizers are unable to stimulate the basal activity of such constructs (FIG. 5).

## N#CC(=Cc1cc(O)c(O)c(O)c1)C(=O)NCCCNC(=O)C(C#N)=Cc1cc(O)c(O)c(O)c1 [Bis-T-23, 2-cyano-N-{3-[2-cyano-3-(3,4,5-trihydroxyphenyl)-acryloylamino]-propyl}-3-(3,4,5-trihydroxyphenyl)-acrylamide]
[1]
  shape of dynamin helix on PS liposomes: drastically altered the helical shape
[2]; 2-6 h after injection, FIG. 21
  proteinuria (urine albumin): partially rescued proteinuria
[2]; 8 h after injection
  proteinuria (urine albumin): ability to rescue proteinuria was reduced
[3]
  proteinuria (urinary albumin and creatinine): decrease in proteinuria to wild-type levels
[4]
  endocytosis: inhibits endocytosis
[5]
  disassembly of helical dynamin by NaCl (150 mM) or Mg/GTP (1 mM): reduce the disassembly of helical dynamin
[6]
  effect on basal GTPase activity of GG2: no effect
